Results as given in ChEMBL document CHEMBL1201862, “PubChem BioAssay data set” (2004).
One block for each compound: values may come before it. Active and inactive are the calls of the source.

Key:
Assay type in all cases: functional
[1] = biological target: T1, Ubiquitin-conjugating enzyme E2 N (Homo sapiens, UniProt P61088);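 note: Dose-response confirmation in a TR-FRET assay detecting UBC13-driven polyubiquitin chain formation, inhibition measured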
T1 sequence (P61088 whole entry): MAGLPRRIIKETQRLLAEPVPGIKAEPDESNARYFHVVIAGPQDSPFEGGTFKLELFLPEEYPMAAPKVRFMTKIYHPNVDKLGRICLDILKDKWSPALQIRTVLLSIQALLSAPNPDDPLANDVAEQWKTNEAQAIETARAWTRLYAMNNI

[2] = biological target: Apoptotic protease-activating factor 1 (Homo sapiens, UniProt O14727)
[3] = biological target: T2, Sentrin-specific protease 6 (Homo sapiens, UniProt Q9GZR1); test: inhibition of human SENP6 catalytic domain – biochemical, luminescence, set 2, SAR follow-up (AID 588598)
T2 sequence (Q9GZR1 whole entry): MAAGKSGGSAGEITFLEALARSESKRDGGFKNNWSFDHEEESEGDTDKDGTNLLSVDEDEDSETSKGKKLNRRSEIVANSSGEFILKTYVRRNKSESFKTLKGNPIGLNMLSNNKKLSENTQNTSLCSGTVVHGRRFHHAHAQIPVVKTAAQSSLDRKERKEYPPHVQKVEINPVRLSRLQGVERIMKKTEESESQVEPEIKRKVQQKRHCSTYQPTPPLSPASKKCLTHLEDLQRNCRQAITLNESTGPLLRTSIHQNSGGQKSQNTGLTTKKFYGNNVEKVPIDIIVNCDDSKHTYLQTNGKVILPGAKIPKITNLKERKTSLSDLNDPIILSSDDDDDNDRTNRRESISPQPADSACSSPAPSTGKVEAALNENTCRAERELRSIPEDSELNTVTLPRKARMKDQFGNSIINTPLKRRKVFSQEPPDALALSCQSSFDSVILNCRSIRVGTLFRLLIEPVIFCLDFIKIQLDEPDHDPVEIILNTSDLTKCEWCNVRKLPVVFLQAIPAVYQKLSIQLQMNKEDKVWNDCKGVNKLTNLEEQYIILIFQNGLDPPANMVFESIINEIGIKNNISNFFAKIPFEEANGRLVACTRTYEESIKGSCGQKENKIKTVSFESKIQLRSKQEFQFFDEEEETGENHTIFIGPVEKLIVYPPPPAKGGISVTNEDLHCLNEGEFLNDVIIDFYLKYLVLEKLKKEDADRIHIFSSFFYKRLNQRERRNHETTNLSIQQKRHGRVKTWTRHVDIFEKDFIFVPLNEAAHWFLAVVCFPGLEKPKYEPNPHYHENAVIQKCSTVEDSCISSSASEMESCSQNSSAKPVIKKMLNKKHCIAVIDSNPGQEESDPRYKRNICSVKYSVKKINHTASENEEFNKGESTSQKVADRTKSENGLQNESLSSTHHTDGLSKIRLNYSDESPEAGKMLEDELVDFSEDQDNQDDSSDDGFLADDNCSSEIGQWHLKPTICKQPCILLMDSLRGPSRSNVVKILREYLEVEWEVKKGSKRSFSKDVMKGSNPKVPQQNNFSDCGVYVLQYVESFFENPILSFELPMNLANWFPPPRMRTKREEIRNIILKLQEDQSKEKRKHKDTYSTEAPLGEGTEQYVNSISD

[4] = biological target: T3, Sentrin-specific protease 7 (Homo sapiens, UniProt Q9BQF6); test: inhibition of human SENP7 cleavage activity – biochemical, luminescence, set 2, SAR follow-up (AID 588600)
T3 sequence (Q9BQF6 whole entry): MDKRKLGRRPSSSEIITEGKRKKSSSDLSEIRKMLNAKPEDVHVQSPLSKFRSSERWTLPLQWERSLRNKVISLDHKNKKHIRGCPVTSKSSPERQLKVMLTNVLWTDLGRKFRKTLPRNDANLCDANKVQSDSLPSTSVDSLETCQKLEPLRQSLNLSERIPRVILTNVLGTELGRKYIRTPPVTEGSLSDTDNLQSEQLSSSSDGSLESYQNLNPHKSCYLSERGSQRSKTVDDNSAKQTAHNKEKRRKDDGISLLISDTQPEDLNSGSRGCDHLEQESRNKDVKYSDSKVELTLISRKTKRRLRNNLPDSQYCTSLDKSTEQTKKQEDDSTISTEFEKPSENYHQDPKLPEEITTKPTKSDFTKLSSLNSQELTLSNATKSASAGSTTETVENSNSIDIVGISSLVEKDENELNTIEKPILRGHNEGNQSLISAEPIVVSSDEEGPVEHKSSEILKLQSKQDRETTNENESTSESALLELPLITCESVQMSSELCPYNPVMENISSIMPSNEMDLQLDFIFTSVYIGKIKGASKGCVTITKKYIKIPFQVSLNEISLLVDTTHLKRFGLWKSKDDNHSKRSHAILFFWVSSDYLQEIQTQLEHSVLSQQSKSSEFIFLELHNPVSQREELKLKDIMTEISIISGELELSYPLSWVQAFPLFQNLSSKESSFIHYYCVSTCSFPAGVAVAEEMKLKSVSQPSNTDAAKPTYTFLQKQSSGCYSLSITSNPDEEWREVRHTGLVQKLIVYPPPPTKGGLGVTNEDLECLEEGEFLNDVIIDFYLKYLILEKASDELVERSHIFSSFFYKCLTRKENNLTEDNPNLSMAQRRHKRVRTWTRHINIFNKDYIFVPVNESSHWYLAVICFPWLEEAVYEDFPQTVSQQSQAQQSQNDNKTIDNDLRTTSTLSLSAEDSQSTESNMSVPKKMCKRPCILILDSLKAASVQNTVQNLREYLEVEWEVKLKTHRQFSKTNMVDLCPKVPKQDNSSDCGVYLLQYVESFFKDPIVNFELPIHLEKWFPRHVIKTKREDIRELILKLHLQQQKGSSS

[5] = biological target: T4, Sentrin-specific protease 8 (Homo sapiens, UniProt Q96LD8); test: inhibition of sentrin protease 8 – biochemical, luminescence, set 2, SAR follow-up (AID 588601)
T4 sequence (Q96LD8 whole entry): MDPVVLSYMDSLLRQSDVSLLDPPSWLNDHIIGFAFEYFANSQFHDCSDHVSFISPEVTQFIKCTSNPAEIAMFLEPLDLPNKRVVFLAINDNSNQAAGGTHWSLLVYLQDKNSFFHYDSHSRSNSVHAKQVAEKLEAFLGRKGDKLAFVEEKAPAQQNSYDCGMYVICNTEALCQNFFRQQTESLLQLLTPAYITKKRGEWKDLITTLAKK

Caspase-3 [6] = biological target: T5, Caspase-3 (Homo sapiens, UniProt P42574); test: inhibition of recombinant caspase-3 activity – biochemical, luminescence, set 2, selectivity assay for SENP protease inhibitor project, SAR follow-up (AID 588599)
T5 sequence (P42574 whole entry): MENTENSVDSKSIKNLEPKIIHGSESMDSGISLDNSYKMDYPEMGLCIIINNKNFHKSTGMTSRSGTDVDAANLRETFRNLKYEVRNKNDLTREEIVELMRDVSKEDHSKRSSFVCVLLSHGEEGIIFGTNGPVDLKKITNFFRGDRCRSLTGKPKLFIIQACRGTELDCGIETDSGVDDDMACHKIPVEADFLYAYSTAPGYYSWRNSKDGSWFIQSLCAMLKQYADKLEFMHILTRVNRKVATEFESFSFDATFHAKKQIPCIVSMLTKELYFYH

[7] = biological target: Multidrug resistance protein CDR1 (Candida albicans, UniProt P43071); test: Candida albicans Cdr1 pump inhibition curves – singleplex, Cherry Pick2 set, dose response (AID 623996); settings: read-out: EC50_MICROM
Chain of Multidrug resistance protein CDR1 (P43071 whole entry, looked up): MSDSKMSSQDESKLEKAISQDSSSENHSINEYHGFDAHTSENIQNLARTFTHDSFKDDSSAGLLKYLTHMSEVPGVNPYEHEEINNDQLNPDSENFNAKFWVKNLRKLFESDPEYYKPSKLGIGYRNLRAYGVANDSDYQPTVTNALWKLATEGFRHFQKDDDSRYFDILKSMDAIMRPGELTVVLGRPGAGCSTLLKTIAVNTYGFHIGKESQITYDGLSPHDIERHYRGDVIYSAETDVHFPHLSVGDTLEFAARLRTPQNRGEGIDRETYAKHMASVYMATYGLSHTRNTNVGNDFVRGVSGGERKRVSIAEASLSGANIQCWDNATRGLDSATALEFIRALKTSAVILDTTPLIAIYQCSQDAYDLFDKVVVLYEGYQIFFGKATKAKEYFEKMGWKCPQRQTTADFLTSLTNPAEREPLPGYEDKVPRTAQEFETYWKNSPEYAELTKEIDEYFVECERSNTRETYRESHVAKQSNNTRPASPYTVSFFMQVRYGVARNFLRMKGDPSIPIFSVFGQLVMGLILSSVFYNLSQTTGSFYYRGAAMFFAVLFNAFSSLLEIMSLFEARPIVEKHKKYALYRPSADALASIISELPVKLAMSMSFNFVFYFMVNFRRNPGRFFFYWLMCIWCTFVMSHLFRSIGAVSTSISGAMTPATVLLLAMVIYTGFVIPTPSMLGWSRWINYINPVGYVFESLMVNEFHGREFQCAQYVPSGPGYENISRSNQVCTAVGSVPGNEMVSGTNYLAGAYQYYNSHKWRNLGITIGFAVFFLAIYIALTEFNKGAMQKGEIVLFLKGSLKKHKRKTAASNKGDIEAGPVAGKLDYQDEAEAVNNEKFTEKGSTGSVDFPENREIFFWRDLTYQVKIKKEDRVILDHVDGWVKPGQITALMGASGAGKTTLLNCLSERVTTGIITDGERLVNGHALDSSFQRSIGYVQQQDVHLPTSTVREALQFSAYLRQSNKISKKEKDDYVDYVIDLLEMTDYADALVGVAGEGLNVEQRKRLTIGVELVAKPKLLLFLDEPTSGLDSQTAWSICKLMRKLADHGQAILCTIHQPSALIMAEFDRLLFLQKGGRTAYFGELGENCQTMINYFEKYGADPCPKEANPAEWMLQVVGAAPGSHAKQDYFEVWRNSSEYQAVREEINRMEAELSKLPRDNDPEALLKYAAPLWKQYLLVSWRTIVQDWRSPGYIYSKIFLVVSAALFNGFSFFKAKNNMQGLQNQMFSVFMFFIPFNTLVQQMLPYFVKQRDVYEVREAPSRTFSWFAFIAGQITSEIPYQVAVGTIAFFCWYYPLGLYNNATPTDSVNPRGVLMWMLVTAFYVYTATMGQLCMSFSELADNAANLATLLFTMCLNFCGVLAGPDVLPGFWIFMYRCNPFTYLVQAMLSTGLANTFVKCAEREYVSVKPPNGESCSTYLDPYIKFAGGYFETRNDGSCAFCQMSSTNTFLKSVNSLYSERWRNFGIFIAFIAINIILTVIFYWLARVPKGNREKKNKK

[8] = biological target: T3, Sentrin-specific protease 7; test: inhibition of human SENP7 cleavage activity – biochemical, luminescence, SAR follow-up (AID 504497)
[9] = biological target: T4, Sentrin-specific protease 8; test: inhibition of human SENP8 cleavage activity – biochemical, luminescence, SAR follow-up (AID 504501)
[10] = biological target: T2, Sentrin-specific protease 6; test: SAR Analysis of small molecule inhibitors of Sentrin-specific protease 6 (SENP6) using a Luminescent assay. [Related pubchem assays (depositor defined):AID2582, AID2599]
Caspase-3 [11] = biological target: T5, Caspase-3; test: SAR Analysis of small molecule inhibitors of Sentrin-specific proteases (SENPs) using a Caspase-3 Selectivity assay. [Related pubchem assays (depositor defined):AID2540, AID2599, AID434973, AID489001]
[12] = biological target: T6, High affinity choline transporter 1 (Homo sapiens, UniProt Q9GZV3); test: human choline transporter potentiators, potency – cell-based, 10-point CRC, membrane potential dye, dose response (AID 602376)
T6 sequence (Q9GZV3 whole entry): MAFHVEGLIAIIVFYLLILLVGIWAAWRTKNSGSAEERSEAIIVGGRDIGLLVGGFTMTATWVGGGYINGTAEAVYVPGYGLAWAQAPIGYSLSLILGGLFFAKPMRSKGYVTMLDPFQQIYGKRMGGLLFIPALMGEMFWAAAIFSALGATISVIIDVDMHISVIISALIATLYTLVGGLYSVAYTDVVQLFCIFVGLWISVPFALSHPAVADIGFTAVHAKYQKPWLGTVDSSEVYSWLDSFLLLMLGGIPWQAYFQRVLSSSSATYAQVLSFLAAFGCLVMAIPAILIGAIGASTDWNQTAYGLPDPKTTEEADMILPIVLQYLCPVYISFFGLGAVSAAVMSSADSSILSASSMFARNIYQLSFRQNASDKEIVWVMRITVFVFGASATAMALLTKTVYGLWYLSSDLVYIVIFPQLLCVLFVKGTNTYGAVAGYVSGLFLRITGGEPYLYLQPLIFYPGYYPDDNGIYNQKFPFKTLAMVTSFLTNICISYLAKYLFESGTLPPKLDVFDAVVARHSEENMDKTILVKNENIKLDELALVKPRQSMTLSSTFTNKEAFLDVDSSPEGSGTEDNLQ

[13] = biological target: Mitogen-activated protein kinase kinase kinase kinase 4 (Homo sapiens, UniProt O95819)
Chain of Mitogen-activated protein kinase kinase kinase kinase 4 (O95819 whole entry): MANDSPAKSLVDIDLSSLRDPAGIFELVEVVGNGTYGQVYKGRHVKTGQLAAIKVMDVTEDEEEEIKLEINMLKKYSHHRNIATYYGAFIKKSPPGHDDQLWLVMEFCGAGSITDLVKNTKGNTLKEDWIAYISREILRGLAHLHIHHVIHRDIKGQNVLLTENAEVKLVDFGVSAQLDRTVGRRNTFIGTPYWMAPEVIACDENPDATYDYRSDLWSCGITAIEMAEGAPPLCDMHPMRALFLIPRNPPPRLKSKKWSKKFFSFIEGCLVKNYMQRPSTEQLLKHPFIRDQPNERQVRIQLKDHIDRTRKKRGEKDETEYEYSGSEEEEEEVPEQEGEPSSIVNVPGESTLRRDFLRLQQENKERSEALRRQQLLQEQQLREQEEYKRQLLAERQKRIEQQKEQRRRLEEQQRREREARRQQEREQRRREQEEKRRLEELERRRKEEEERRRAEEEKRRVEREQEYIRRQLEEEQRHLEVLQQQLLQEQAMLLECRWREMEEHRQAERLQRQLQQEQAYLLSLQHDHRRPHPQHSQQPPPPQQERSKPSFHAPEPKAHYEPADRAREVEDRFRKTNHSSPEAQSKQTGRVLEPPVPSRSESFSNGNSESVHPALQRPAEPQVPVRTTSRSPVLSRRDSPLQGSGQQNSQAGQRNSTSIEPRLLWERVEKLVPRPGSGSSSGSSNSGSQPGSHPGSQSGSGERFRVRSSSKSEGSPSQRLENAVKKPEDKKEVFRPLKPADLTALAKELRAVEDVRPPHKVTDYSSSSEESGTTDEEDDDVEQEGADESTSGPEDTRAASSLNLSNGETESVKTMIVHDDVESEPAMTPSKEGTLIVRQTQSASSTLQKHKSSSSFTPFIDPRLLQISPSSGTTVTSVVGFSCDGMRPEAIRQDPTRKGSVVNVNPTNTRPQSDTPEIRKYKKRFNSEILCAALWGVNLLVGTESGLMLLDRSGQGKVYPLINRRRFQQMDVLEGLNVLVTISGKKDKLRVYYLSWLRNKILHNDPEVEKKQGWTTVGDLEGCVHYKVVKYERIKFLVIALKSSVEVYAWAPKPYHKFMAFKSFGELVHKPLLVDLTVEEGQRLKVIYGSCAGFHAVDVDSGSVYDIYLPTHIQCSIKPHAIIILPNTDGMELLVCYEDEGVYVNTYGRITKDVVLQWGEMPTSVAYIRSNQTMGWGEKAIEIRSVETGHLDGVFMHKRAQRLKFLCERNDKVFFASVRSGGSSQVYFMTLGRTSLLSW

[14] = biological target: MAP kinase-interacting serine/threonine-protein kinase 2 (Homo sapiens, UniProt Q9HBH9)
Chain of MAP kinase-interacting serine/threonine-protein kinase 2 (Q9HBH9 whole entry): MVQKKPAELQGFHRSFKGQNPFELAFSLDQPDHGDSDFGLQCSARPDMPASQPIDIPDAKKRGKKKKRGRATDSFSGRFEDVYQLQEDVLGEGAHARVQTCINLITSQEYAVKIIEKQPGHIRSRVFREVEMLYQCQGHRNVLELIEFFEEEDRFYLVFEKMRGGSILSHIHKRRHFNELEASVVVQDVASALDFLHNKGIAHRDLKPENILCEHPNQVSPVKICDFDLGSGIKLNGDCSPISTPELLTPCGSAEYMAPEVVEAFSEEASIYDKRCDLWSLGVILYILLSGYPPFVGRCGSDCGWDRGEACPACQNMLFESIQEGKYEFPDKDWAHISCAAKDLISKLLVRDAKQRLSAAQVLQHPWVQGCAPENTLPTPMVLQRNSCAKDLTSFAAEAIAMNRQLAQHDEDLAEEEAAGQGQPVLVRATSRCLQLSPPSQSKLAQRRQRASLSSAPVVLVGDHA

[15] = biological target: Glycogen synthase kinase-3 beta (Homo sapiens, UniProt P49841);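 note: value comes from a broad kinome profiling panel, with GSK3B as the panel member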
[16] = biological target: Homeodomain-interacting protein kinase 2 (Homo sapiens, UniProt Q9H2X6);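 note: measured within a kinome-wide kinase profiling panel, HIPK2 being one panel member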
Chain of Homeodomain-interacting protein kinase 2 (Q9H2X6 whole entry): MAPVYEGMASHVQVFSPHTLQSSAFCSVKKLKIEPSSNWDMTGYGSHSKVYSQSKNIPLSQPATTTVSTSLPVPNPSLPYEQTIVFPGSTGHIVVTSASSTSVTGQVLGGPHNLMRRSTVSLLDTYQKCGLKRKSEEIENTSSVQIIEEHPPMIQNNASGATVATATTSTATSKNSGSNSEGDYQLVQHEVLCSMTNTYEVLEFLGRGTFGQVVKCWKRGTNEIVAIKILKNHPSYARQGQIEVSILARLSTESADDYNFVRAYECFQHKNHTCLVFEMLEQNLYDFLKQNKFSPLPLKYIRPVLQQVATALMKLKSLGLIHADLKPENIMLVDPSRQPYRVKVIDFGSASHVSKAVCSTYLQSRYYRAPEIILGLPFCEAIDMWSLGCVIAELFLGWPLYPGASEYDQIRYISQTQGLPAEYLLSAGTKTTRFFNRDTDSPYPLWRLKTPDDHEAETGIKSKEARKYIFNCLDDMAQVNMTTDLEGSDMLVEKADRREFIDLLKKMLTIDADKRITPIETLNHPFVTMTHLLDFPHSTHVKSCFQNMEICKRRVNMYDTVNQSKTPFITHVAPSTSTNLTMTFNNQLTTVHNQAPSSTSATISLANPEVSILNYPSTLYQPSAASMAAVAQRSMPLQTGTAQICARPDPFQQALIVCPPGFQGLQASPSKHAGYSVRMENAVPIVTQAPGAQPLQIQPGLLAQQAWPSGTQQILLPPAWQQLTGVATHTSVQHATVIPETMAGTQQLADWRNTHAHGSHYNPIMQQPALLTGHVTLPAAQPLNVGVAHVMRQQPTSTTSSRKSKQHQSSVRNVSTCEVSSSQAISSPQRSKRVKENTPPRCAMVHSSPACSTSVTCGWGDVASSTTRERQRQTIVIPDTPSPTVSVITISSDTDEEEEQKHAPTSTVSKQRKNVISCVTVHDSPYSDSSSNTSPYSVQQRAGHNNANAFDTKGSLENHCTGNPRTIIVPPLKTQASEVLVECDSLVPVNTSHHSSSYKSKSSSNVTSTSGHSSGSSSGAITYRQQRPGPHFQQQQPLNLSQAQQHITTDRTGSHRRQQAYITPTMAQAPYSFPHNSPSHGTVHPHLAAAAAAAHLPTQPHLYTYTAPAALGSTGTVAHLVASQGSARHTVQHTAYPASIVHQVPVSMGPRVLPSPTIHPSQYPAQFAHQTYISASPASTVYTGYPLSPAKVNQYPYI

[17] = biological target: cAMP-dependent protein kinase catalytic subunit alpha (Homo sapiens, UniProt P17612)
[18] = biological target: Serine/threonine-protein kinase pim-1 (Homo sapiens, UniProt P11309)
[19] = biological target: Cell division cycle 7-related protein kinase (Homo sapiens, UniProt O00311);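 note: value obtained from a kinome-wide kinase panel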
[20] = biological target: Interleukin-1 receptor-associated kinase 4 (Homo sapiens, UniProt Q9NWZ3)
[21] = biological target: Dual specificity protein kinase CLK4 (Homo sapiens, UniProt Q9HAZ1)
Chain of Dual specificity protein kinase CLK4 (Q9HAZ1 whole entry): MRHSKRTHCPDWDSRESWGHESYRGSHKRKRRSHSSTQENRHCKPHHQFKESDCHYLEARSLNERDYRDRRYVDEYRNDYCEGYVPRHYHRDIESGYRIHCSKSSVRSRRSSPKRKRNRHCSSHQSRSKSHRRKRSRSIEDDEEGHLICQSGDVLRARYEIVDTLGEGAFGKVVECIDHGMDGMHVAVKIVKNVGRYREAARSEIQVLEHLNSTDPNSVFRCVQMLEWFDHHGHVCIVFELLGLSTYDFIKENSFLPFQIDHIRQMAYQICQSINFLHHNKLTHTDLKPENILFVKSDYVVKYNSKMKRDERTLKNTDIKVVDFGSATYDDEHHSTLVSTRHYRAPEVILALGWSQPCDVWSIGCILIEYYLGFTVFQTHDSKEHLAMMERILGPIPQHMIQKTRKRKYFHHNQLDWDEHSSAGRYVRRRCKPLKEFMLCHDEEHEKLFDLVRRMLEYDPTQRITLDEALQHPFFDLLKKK

[22] = biological target: Glycogen synthase kinase-3 alpha (Homo sapiens, UniProt P49840);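 note: GSK3A result taken from a broad kinome-wide kinase panel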

Structure (SMILES): COc1ccccc1C(CNC(=O)CNC(=O)c1ccccc1Cl)N1CCCC1 (stereo not drawn)
IC50 [1]: > 20 µM (inactive)
IC50 [2]: > 100 µM (inactive)

Structure (SMILES): COc1ccc2c(c1)OC[C@H]1[C@H]2N2C(=O)c3ccc(C)cc3NC(=O)[C@@]2(C)[C@H]1c1ccccc1
EC50 [7]: 17.3 µM (active)

Structure (SMILES): CCCCNC(=O)COCc1cc(-c2ccc3c(c2)OCO3)on1
EC50 [12]: 8.04 µM (active)

Further lines, with some results ahead:

IC50 [3]: > 99 µM (inactive)
IC50 [4]: > 99 µM (inactive)
IC50 (Caspase-3 [6]): > 99 µM (inactive)
Structure (SMILES): O=C(C(=O)N1CCCc2ccccc21)c1c[nH]c2ccccc12
IC50 [5]: > 99 µM (inactive)

IC50 [8]: > 99 µM (inactive)
IC50 [10]: > 99 µM (inactive)
IC50 (Caspase-3 [11]): > 99 µM (inactive)
Structure (SMILES): CS(=O)(=O)c1ccc2nc(NC(=O)c3c(F)cccc3F)sc2c1
IC50 [9]: > 99 µM (inactive)

Ki [13]: 2 µM (active)
Ki [14]: > 10 µM (inactive)
Ki [15]: 0.794 µM (active)
Ki [16]: > 3.16 µM (inactive)
Ki [17]: > 7.94 µM (inactive)
Ki [18]: 7.94 µM (active)
Ki [19]: 0.158 µM (active)
Ki [20]: > 10 µM (inactive)
Ki [21]: 0.1 µM (active)
Structure (SMILES): NC(=O)c1ccc(-c2ccncc2)cc1NCc1cccc(F)c1

Ki [13]: 5.01 µM (active)
Ki [22]: 3.16 µM (active)
Structure (SMILES): Cc1cc(O)nc2[nH]nc(-c3cccc(-c4cccc(C#N)c4)c3)c12
